Assays:
[1] = (§1) The drug is tested on Z-030 corresponding to mouse gut metagenome with ENA study accession number: PRJEB37062 and ENA sample accession number: ERS12561829 for biotransformation under anaerobic condition. The drug concentrations were measured over 9 timepoints collected between 0 and 24 hours of incubation by liquid-chromatography-coupled mass spectrometry (LC–MS); details: 2 µM
[2] = as §1, with “Z-026” for “Z-030”, “to” for “to mouse gut”, “ERS12561825” for “ERS12561829”; details: 2 µM
[3] = as §1, with “Z-025” for “Z-030”, “rabbit” for “mouse”, “ERS12561824” for “ERS12561829”; details: 2 µM
[4] = as §1, with “Z-021” for “Z-030”, “to” for “to mouse gut”, “ERS12561820” for “ERS12561829”; details: 2 µM
[5] = as §1, with “Z-008” for “Z-030”, “to” for “to mouse gut”, “ERS12561808” for “ERS12561829”; details: 2 µM
[6] = as §1, with “Z-007” for “Z-030”, “rat” for “mouse”, “ERS12561807” for “ERS12561829”; details: 2 µM
[7] = as §1, with “WLS-240” for “Z-030”, “human” for “mouse”, “ERS12561773” for “ERS12561829”; details: 2 µM
[8] = as §1, with “WLS-077” for “Z-030”, “human” for “mouse”, “ERS12561750” for “ERS12561829”; details: 2 µM
[9] = as §1, with “WLS-073” for “Z-030”, “human” for “mouse”, “ERS12561749” for “ERS12561829”; details: 2 µM
[10] = as §1, with “WLS-039” for “Z-030”, “human” for “mouse”, “ERS12561746” for “ERS12561829”; details: 2 µM
[11] = as §1, with “WLS-010” for “Z-030”, “human” for “mouse”, “ERS12561743” for “ERS12561829”; details: 2 µM
[12] = human gut metagenome, 24 h, 2 µM
[13] = human gut metagenome, 24 h, 2 µM; remark: listed apart in the source
[14] = human gut metagenome, 24 h, 2 µM; remark: listed apart in the source
[15] = human gut metagenome, 24 h, 2 µM; remark: listed apart in the source
[16] = human gut metagenome, 24 h, 2 µM; remark: listed apart in the source
[17] = human gut metagenome, 24 h, 2 µM; remark: listed apart in the source
[18] = human gut metagenome, 24 h, 2 µM; remark: listed apart in the source
[19] = human gut metagenome, 24 h, 2 µM; remark: listed apart in the source
[20] = human gut metagenome, 24 h, 2 µM; remark: listed apart in the source
Also: call rule not given here.

Row | Structure (SMILES) | Bacterial Biotransformation [1] | Bacterial Biotransformation [2] | Bacterial Biotransformation [3] | Bacterial Biotransformation [4] | Bacterial Biotransformation [5] | Bacterial Biotransformation [6] | Bacterial Biotransformation [7] | Bacterial Biotransformation [8] | Bacterial Biotransformation [9] | Bacterial Biotransformation [10] | Bacterial Biotransformation [11] | Bacterial Biotransformation [12] | Bacterial Biotransformation [13] | Bacterial Biotransformation [14] | Bacterial Biotransformation [15] | Bacterial Biotransformation [16] | Bacterial Biotransformation [17] | Bacterial Biotransformation [18] | Bacterial Biotransformation [19] | Bacterial Biotransformation [20]
1 | CC1=C(CC(=O)O)c2cc(F)ccc2/C1=C\c1ccc([S+](C)[O-])cc1 (configuration not stated) | Compound metabolized | Compound metabolized | Compound NOT metabolized | Compound NOT metabolized | Compound NOT metabolized | Compound NOT metabolized | Compound metabolized | Compound metabolized | Compound metabolized | Compound metabolized | Compound metabolized | Compound metabolized | Compound metabolized | Compound metabolized | Compound metabolized | Compound metabolized | Compound metabolized | Compound NOT metabolized | Compound metabolized | 
2 | CCOC(=O)[C@H](CCc1ccccc1)N[C@@H](C)C(=O)N1Cc2ccccc2C[C@H]1C(=O)O | Compound NOT metabolized | Compound NOT metabolized | Compound NOT metabolized | Compound NOT metabolized | Compound NOT metabolized | Compound NOT metabolized | Compound metabolized | Compound metabolized | Compound metabolized | Compound metabolized | Compound metabolized | Compound metabolized | Compound metabolized | Compound metabolized | Compound metabolized | Compound metabolized | Compound metabolized | Compound metabolized | Compound metabolized | Compound metabolized
3 | C#C[C@]1(OC(C)=O)CC[C@H]2[C@@H]3CCC4=C[C@@H](OC(C)=O)CC[C@@H]4[C@H]3CC[C@@]21C [ETHYNODIOL DIACETATE] | Compound metabolized | Compound metabolized | Compound metabolized | Compound metabolized | Compound metabolized | Compound metabolized | Compound metabolized | Compound metabolized |  | Compound metabolized | Compound metabolized | Compound metabolized | Compound metabolized | Compound metabolized | Compound metabolized | Compound metabolized | Compound metabolized | Compound metabolized | Compound metabolized | Compound metabolized
4 | N#Cc1ccc2[nH]cc(CCCCN3CCN(c4ccc5oc(C(N)=O)cc5c4)CC3)c2c1 [VILAZODONE] | Compound metabolized | Compound NOT metabolized | Compound NOT metabolized | Compound metabolized | Compound metabolized | Compound NOT metabolized | Compound metabolized | Compound metabolized | Compound metabolized | Compound metabolized | Compound metabolized | Compound metabolized | Compound metabolized | Compound metabolized | Compound metabolized | Compound metabolized | Compound metabolized |  | Compound metabolized | Compound metabolized

Source: ChEMBL document CHEMBL5724914, “Linking interpersonal differences in gut microbiota composition and drug biotransformation activity” (2024)
